From patent US10583119B2, “Compounds, compositions and methods for making the same” (Signum Biosciences, Inc., priority 2008, dated 2020) come the findings set out here.

Molecules are shown by their SMILES. Entries after “also recorded” stand apart in the source; their conditions may differ.

One assay deals with T1, PP2A (Homo sapiens, UniProt P67775).
T1 construct: made in house
In words: Phosphatase activity of PP2A using pNPP as substrate. In kind it is biochemical. Particulars: un-methylated PP2A, non-protein substrate pNPP, absence of ME and MT. As to the method: PP2A (10-200 nM) and pNPP (5-10 mM, Sigma) were mixed into 96-well plate (Fisher Scientific Inc.) in 50 μL of the buffer required. Reactions were performed at room temperature, and fully stopped by adding equal volume of 0.1 M EDTA. Production of p-nitrophenol […] was quantified by absorbance of reaction mixtures at 405 nm using the VMax® microplate reader (Molecular Devices).

The target of assay [1] is T2, protein phosphatase 2A specific methyltransferase (MTase) (Homo sapiens, UniProt Q9UIC8).
T2 construct: His; made in house
T2 sequence (Q9UIC8 whole entry): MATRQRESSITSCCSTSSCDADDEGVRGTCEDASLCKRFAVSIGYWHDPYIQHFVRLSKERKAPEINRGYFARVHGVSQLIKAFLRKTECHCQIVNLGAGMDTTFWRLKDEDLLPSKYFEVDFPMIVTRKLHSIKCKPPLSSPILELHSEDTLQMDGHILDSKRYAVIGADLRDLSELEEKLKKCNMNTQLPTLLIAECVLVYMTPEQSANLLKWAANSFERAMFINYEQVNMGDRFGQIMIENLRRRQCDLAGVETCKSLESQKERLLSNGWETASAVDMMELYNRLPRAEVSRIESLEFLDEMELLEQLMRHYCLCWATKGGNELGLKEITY
In words: PP2A methylation in 96-well plate format (methyltransferase activity). The assay is classed as biochemical. Particulars: purified PP2A, MTase and [3H]-SAM; read-out: MT (IC50). On the procedure:
Purified PP2A, MTase and [^3H]-SAM, were incubated in reaction buffer at 37° C. At the end of the reaction, mixture was added onto the membranes of 96-well filter plate (Multiscreen™, Millipore). The membranes were then pre-wetted with 70% ethanol (50 μL/well) and then subsequently washed with water (2×200 μL/well). The reaction in each well was terminated and the proteins (5 μL-20 μL) were precipitated by adding 25% ice-cold TCA. The plate was kept on ice for 30 minutes to ensure completion of protein precipitation. Excess of the free SAM was then removed by washing with 5% cold TCA ([…]) and 70% cold ethanol (2×100 μL/well). Membranes were air-dried, radioactivity in each well was counted by TopCount^NXT scintillation counter (Packard) with 25 μL/well of Microsinct™ 20 (PerkinElmer).

Assay [2] deals with Swiss-Webster (wild-type) mice. The assay is described as follows: Glucose metabolism (intraperitoneal glucose tolerance test, body weight) in wild-type mice. Particulars: 0.1% in diet for 128 days. The assay is classed as in vivo. From the text:
The glucose tolerance test (GTT) measures the body's ability to metabolize glucose. It is currently used to diagnose patients with prediabetes disposition and diabetes.
Twenty (20) Swiss-Webster (wild-type) mice were acclimated for 2 weeks. The mice were ear notched for identification and housed in individually and negatively ventilated polycarbonate cages with HEPA filtered air at a density of 6 mice per cage. Bed-o-cob corn cob bedding was used and cages were changed every two weeks. The animal room was lighted entirely with artificial fluorescent lighting, with a controlled 12 h light/dark cycle (7 am to 7 pm light). The normal temperature and relative humidity ranged in the animal rooms are 22±4° C. and 50±15%, respectively. The animal rooms were set to have 15 air exchanges per hour. Filtered tap water, acidified to a pH of 2.8 to 3.2. LabDiet D10001 was provided ad libitum, and leftover food was removed once per week.
Following acclimation, mice are assigned to groups according to diet. • 1. Control Diet (D10001) • 2. Compound I-63 ((D10001 with 0.1% 1-63)
The mice were maintained on the diet for 128 days. […] Mice were weighed and glucose dose calculated for […] body weight. […] Blood glucose levels were measured with the OneTouch UltraSmart electronic glucometer at time point O with tail vein blood. […] Blood glucose was measured at 15, 30, 45, 90 and 120 minutes after glucose injection.

The test system of assay [3] is Thyl-alpha-synuclein transgenic mice. The assay is described as follows: Locomotor tests (open field, rota-rod) in alpha-synuclein over-expressing mice. Conditions: 0.001% diet (p=0.068). The assay is classed as in vivo. As to the method:
Transgenic mice over-expressing the full length human alpha-synuclein have been described previously, and are excellent models for sensorimotor tests that are sensitive to alterations in the nigrostriatal dopaminergic system [Fleming, S. M. et. al, J. Neurosci. 24, 9434-40, (2004)].
Thyl-alpha-synuclein transgenic mice (9-12 weeks old) and age-matched wild type mice were housed in clear plastic cages in a temperature-, and humidity-controlled environment with a 12 hour-light/dark cycle (light switched on at 7 a.m.), and were maintained on an ad libitum diet of lab chow and water. The animal feeds used were either normal (Control) or formulated with Compound I-63 at 0.001% and 0.1%. […]
Locomotor activity was assessed in an open field paradigm by a Digiscan activity monitor utilizing a grid of infrared beams that record the location and path of the animal (horizontal activity) as well as the number of rearing movements (vertical activity). […] Each mouse was then placed in the middle of an open field chamber (42×42 cm acrylic animal cages, AccuScan Instruments) and locomotion was recorded for 10 min. The infrared light beam sensors were connected to a computer that recorded animal position every millisecond. […] The total number of squares crossed by each mouse was recorded and average horizontal and vertical activities was determined for each group of mice. […]
On the technique in general: The rotarod test checks motor coordination on a turning rod.

T1 sequence (P67775 whole entry): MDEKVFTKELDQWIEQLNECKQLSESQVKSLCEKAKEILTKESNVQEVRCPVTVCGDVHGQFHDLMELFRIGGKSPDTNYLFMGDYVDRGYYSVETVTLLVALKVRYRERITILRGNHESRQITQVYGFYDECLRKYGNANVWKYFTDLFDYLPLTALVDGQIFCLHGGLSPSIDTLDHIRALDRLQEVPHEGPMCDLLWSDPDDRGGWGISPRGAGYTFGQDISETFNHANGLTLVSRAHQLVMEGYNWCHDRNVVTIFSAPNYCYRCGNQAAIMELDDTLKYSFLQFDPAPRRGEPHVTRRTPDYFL
T1 sequence (P30153 whole entry partner): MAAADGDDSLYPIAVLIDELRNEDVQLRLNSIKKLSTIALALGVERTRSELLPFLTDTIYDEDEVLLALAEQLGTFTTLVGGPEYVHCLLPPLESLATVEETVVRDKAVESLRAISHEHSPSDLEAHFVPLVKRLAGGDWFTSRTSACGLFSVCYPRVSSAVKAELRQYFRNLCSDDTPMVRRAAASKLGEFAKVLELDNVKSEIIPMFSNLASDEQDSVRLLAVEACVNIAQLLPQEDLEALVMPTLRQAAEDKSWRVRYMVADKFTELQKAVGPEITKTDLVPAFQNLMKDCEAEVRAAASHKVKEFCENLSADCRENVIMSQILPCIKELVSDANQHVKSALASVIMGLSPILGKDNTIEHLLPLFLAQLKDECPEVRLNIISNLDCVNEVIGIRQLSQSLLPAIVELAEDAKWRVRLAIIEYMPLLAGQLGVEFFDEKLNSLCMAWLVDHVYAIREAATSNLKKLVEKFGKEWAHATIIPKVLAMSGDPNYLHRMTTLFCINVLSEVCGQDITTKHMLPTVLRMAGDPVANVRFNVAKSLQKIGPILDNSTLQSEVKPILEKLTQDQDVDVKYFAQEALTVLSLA

One may read the IC50 as the concentration needed to halve the response being measured. Regarding `CCCCCCCCCCCCCCCCCCCC(=O)NCCc1c[nH]c2ccc(O)cc12` [Compound I-63, N-(2-(5-hydroxy-1H-indol-3-yl)ethyl)icosanamide], the IC50 against PP2A is over 100 µM. The IC50 in assay [1] fell in the range of 10 to 100 µM. In assay [2], the “glucose tolerance in intraperitoneal glucose tolerance test” value is “consistently lower glucose levels; also recorded: improved glucose tolerance” and the “incremental area under the curve of blood glucose levels in the glucose tolerance test compared to control diet” value is reported as under 10%. Also, the horizontal activity entry in assay [3] was “increase”.
